Measured values as given in the NIST ThermoML archive (doi:10.1021/je700236c).
Where “and” joins values, the source holds several entries; their conditions need not be identical. Equal entries are not always repeated.

Details: Gas, Buoyancy - hydrostatic balance with magnetic suspension - two sinkers

CC(F)(F)F [1,1,1-trifluoroethane]
Details | mass density
283.15 K, 203.6 kPa | 7.588 kg/m3 and 7.589 kg/m3
283.15 K, 399.9 kPa | 15.605 kg/m3
283.15 K, 505.8 kPa | 20.278 kg/m3 and 20.282 kg/m3
283.15 K, 605 kPa | 24.935 kg/m3 and 24.932 kg/m3
283.15 K, 651.6 kPa | 27.227 kg/m3
283.15 K, 651.7 kPa | 27.238 kg/m3
283.15 K, 700.8 kPa | 29.729 kg/m3 and 29.728 kg/m3
283.15 K, 750.8 kPa | 32.363 kg/m3 and 32.361 kg/m3
283.15 K, 781.5 kPa | 34.03 kg/m3
283.15 K, 781.6 kPa | 34.039 kg/m3
283.15 K, 801.7 kPa | 35.15 kg/m3
283.15 K, 801.8 kPa | 35.164 kg/m3
283.15 K, 820.2 kPa | 36.196 kg/m3
283.15 K, 820.3 kPa | 36.205 kg/m3
293.15 K, 201.7 kPa | 7.219 kg/m3
293.15 K, 201.8 kPa | 7.222 kg/m3
293.15 K, 400.3 kPa | 14.916 kg/m3 and 14.915 kg/m3
293.15 K, 599.3 kPa | 23.356 kg/m3 and 23.36 kg/m3
293.15 K, 701.3 kPa | 28.031 kg/m3 and 28.028 kg/m3
293.15 K, 798.2 kPa | 32.729 kg/m3 and 32.732 kg/m3
293.15 K, 898.7 kPa | 37.925 kg/m3 and 37.921 kg/m3
293.15 K, 951 kPa | 40.774 kg/m3
293.15 K, 999.6 kPa | 43.532 kg/m3
293.15 K, 1030.9 kPa | 45.365 kg/m3 and 45.355 kg/m3
293.15 K, 1048.7 kPa | 46.429 kg/m3
293.15 K, 1048.8 kPa | 46.429 kg/m3
293.15 K, 1071 kPa | 47.788 kg/m3
293.15 K, 1071.1 kPa | 47.784 kg/m3
293.15 K, 1089 kPa | 48.896 kg/m3 and 48.901 kg/m3
303.15 K, 200 kPa | 6.895 kg/m3 and 6.903 kg/m3
303.15 K, 400.9 kPa | 14.305 kg/m3 and 14.313 kg/m3
303.15 K, 600.3 kPa | 22.265 kg/m3
303.15 K, 600.4 kPa | 22.265 kg/m3
303.15 K, 801.6 kPa | 31.034 kg/m3 and 31.031 kg/m3
303.15 K, 1001 kPa | 40.662 kg/m3 and 40.666 kg/m3
303.15 K, 1099.9 kPa | 45.879 kg/m3 and 45.88 kg/m3
303.15 K, 1197.3 kPa | 51.364 kg/m3 and 51.363 kg/m3
303.15 K, 1249.2 kPa | 54.458 kg/m3
303.15 K, 1299.5 kPa | 57.578 kg/m3 and 57.581 kg/m3
303.15 K, 1340.6 kPa | 60.231 kg/m3 and 60.229 kg/m3
303.15 K, 1369.8 kPa | 62.181 kg/m3 and 62.183 kg/m3
303.15 K, 1401.5 kPa | 64.363 kg/m3 and 64.364 kg/m3
303.15 K, 1423.7 kPa | 65.925 kg/m3
303.15 K, 1423.9 kPa | 65.952 kg/m3
313.15 K, 201.5 kPa | 6.696 kg/m3
313.15 K, 201.8 kPa | 6.718 kg/m3
313.15 K, 205.1 kPa | 6.831 kg/m3 and 6.828 kg/m3
313.15 K, 206.2 kPa | 6.869 kg/m3
313.15 K, 401.6 kPa | 13.776 kg/m3
313.15 K, 401.7 kPa | 13.775 kg/m3
313.15 K, 600.3 kPa | 21.275 kg/m3 and 21.282 kg/m3
313.15 K, 800.3 kPa | 29.41 kg/m3 and 29.413 kg/m3
313.15 K, 999.1 kPa | 38.197 kg/m3 and 38.204 kg/m3
313.15 K, 1200.3 kPa | 47.988 kg/m3 and 48.002 kg/m3
313.15 K, 1400.2 kPa | 58.893 kg/m3 and 58.909 kg/m3
313.15 K, 1500.8 kPa | 64.963 kg/m3 and 64.977 kg/m3
313.15 K, 1540.9 kPa | 67.443 kg/m3 and 67.442 kg/m3
313.15 K, 1598 kPa | 71.29 kg/m3
313.15 K, 1598.1 kPa | 71.312 kg/m3
313.15 K, 1648.3 kPa | 74.652 kg/m3 and 74.647 kg/m3
313.15 K, 1701.3 kPa | 78.498 kg/m3 and 78.51 kg/m3
313.15 K, 1740.8 kPa | 81.517 kg/m3 and 81.508 kg/m3
313.15 K, 1771.1 kPa | 83.916 kg/m3 and 83.908 kg/m3
313.15 K, 1793.2 kPa | 85.73 kg/m3
313.15 K, 1794.4 kPa | 85.811 kg/m3
